From publication PMC5293833, “Mycobacterium tuberculosis Prolyl Oligopeptidase Induces In vitro Secretion of Proinflammatory Cytokines by Peritoneal Macrophages” (Frontiers in Microbiology, 2017)
Starred links: 1 amine or outer side, 2 acyl side, 3 side chain; linkers in the order of their positions; H or OH if unused. Residues, ends and D or L forms follow the SMILES beside them. *: point of attachment. AMC = Cc1cc(=O)oc2cc(N*)ccc12; Suc = O=C(CCC(=O)[*:2])[*:1]

Columns and labels:
Assay type in all cases: biochemical
[1] = biological target: T1, prolyl oligopeptidase (POPMt) (Mycobacterium tuberculosis, UniProt O07178); test: fluorogenic AMC substrate assay, % inhibition at […]; details: 1000 µM
T1 construct: gene Rv0457c
T1 sequence (O07178 entry or part of it): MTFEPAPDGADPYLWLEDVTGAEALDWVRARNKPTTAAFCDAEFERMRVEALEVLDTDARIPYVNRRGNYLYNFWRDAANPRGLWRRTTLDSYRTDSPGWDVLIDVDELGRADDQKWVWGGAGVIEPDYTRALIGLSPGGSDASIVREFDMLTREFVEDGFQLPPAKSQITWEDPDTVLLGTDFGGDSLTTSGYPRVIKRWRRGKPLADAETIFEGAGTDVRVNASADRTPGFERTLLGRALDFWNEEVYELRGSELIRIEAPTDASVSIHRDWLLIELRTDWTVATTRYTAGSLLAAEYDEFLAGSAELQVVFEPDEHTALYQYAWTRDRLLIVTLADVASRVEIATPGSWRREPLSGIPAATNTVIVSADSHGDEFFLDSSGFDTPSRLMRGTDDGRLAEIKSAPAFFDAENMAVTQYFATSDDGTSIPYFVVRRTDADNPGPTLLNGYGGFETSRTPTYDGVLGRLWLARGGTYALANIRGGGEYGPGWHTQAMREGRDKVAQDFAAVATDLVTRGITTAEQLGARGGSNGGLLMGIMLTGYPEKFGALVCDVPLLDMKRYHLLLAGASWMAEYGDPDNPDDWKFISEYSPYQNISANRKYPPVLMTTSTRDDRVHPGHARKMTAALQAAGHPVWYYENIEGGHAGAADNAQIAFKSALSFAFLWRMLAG

[2] = biological target: T1, prolyl oligopeptidase (POPMt)
[3] = biological target: T1, prolyl oligopeptidase (POPMt); test: fluorogenic AMC substrate assay, % inhibition at […]

SMILES	inhibition at 100 µM [3] [%]	other results
NCCc1ccc(S(=O)(=O)F)cc1 [AEBSF]	–	Inhibition (%) [1]: 33
Cc1cc(=O)oc2cc(NC(=O)[C@@H]3CCCN3C(=O)CNC(=O)CCC(=O)O)ccc12 [N-Suc-Gly-Pro-AMC] (Suc-Gly-Pro-{AMC})	–	Relative activity (%) [2]: 48 % relative activity
Cc1ccc(S(=O)(=O)N[C@@H](CCCCN)C(=O)CCl)cc1 [TLCK]	35	–
Cc1ccc(S(=O)(=O)N[C@@H](Cc2ccccc2)C(=O)CCl)cc1 [TPCK]	66	–
